Literature values, collected in patent US20260069593A1, “METHODS FOR TREATING CANCER” (AMGEN INC., priority 2022, published 2026).

System: extracellular signal-regulated kinase (ERK)
Details: preclinical studies

## C=CC(=O)N1CCN(c2nc(=O)n(-c3c(C)ccnc3C(C)C)c3nc(-c4c(O)cccc4F)c(F)cc23)[C@@H](C)C1 (atropisomer, axis not shown; (M)) [sotorasib, 6-fluoro-7-(2-fluoro-6-hydroxyphenyl)-(1M)-1-[4-methyl-2-(propan-2-yl)pyridin-3-yl]-4-[(2S)-2-methyl-4-(prop-2-enoyl)piperazin-1-yl]pyrido[2,3-d]pyrimidin-2(1H)-one]
  phosphorylation of extracellular signal-regulated kinase (ERK): inhibited nearly all detectable phosphorylation of extracellular signal-regulated kinase (ERK)
